From patent US20250163104A1, “MACROCYCLIC IMMUNOMODULATORS” (priority 2021, published 2025)
Where a SMILES comes first, the peptide text is derived from it. Bridges are numbered along the chain shown (N, C = ends). [ ]: non-standard residue; d: D form. The star is where a group is joined. Bip = N[C@@H](Cc1ccc(-c2ccccc2)cc1)C(=O)O; Cha = N[C@@H](CC1CCCCC1)C(=O)O; Cit = NC(=O)NCCC[C@H](N)C(=O)O; Carboxymethyl = O=C(O)C*; Orn = NCCC[C@H](N)C(=O)O; Dap = NC[C@H](N)C(=O)O

What follows are molecules tested against T1, human PD-1 / PD-L1-Ig binding on Jurkat cell line over-expressing human PD-1 (Jurkat-PD-1) (Homo sapiens, UniProt Q15116) (assay: Jurkat-PD-1 Cell Binding High-Content Screening Assay (CBA)). Conditions: Jurkat HPD1_PDL1 IC50, Jurkat-PD-1 cells, PE-labeled PD-L1-Ig 20 nM final.
T1 construct: expressed in transfected cells; host or cells: Jurkat
T1 sequence (Q15116 25-288): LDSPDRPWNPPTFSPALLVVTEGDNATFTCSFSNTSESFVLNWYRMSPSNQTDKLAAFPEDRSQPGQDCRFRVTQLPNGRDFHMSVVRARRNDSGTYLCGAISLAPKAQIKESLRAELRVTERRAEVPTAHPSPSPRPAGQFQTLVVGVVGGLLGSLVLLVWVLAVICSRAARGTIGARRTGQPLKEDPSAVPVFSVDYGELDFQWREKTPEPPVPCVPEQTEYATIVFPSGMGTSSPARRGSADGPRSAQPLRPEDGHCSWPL
Assay type: cell-based
In short: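 Jurkat-hPD-1 cells in DMEM with 10% fetal calf serum receive test compound and are held at 37° C for 2 h. PE-labeled PD-L1-Ig is added at 20 nM final and left for 1 hour. Cells are then fixed and Hoechst-stained, and binding is measured by imaging.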
For `CC(C)C[C@H]1NC(=O)[C@H](CCCN)NC(=O)[C@H](C(C)C)NC(=O)[C@H](Cc2ccc(-c3ccccc3)cc2)NC(=O)[C@H](C(C)C)NC(=O)[C@H](Cc2c[nH]c3ccccc23)NC(=O)[C@H](CC(=O)O)NC(=O)[C@H](Cc2ccc(OCC(=O)O)cc2)NC(=O)[C@H](Cc2ccc(OCC(=O)O)cc2)NC(=O)CSC[C@@H](C(=O)N[C@@H](C)C(N)=O)NC(=O)[C@H]([C@@H](C)O)NC(=O)[C@H](C(C)C)NC(=O)[C@H](CC2CCCCC2)NC(=O)[C@H](Cc2c[nH]cn2)NC1=O` [Compound 1591], the IC50 was 17.9 nM. With `CC[C@H](C)[C@@H]1NC(=O)[C@H](Cc2ccc(-c3ccccc3)cc2)NC(=O)[C@H](C(C)C)NC(=O)[C@H](Cc2c[nH]c3ccccc23)NC(=O)[C@H](CC(=O)O)NC(=O)[C@H](Cc2ccc(OCC(=O)O)cc2)NC(=O)[C@H](Cc2ccc(OCC(=O)O)cc2)NC(=O)CSC[C@@H](C(=O)N[C@@H](C)C(N)=O)NC(=O)[C@H]([C@@H](C)O)NC(=O)[C@H](C(C)C)NC(=O)[C@H](CC2CCCCC2)NC(=O)[C@H](Cc2c[nH]cn2)NC(=O)[C@@H](CC(C)C)NC(=O)[C@H](CCCN)NC1=O` [Compound 1592] the IC50 was 31.5 nM. `CC(C)C[C@H]1NC(=O)[C@H](CCCN)NC(=O)[C@H](CCCNC(N)=O)NC(=O)[C@H](Cc2ccc(-c3ccccc3)cc2)NC(=O)[C@H](C(C)C)NC(=O)[C@H](Cc2c[nH]c3ccccc23)NC(=O)[C@H](CC(=O)O)NC(=O)[C@H](Cc2ccc(OCC(=O)O)cc2)NC(=O)[C@H](Cc2ccc(OCC(=O)O)cc2)NC(=O)CSC[C@@H](C(=O)N[C@@H](C)C(N)=O)NC(=O)[C@H]([C@@H](C)O)NC(=O)[C@H](C(C)C)NC(=O)[C@H](CC2CCCCC2)NC(=O)[C@H](Cc2c[nH]cn2)NC1=O` [Compound 1594] showed an IC50 of 19.4 nM. Molecule `CC(C)C[C@H]1NC(=O)[C@H](CCCN)NC(=O)[C@H](CCC(=O)O)NC(=O)[C@H](Cc2ccc(-c3ccccc3)cc2)NC(=O)[C@H](C(C)C)NC(=O)[C@H](Cc2c[nH]c3ccccc23)NC(=O)[C@H](CC(=O)O)NC(=O)[C@H](Cc2ccc(C(=O)O)cc2)NC(=O)[C@H](Cc2ccncc2)NC(=O)CSC[C@@H](C(=O)N[C@@H](C)C(N)=O)NC(=O)[C@H]([C@@H](C)O)NC(=O)[C@H](C(C)C)NC(=O)[C@H](CC2CCCCC2)NC(=O)[C@H](Cc2c[nH]cn2)NC1=O` [Compound 1597] has an IC50 of 20.2 nM. For `CC(C)C[C@H]1NC(=O)[C@H](CCCN)NC(=O)[C@H](CCCNC(N)=O)NC(=O)[C@H](Cc2ccc(-c3ccccc3)cc2)NC(=O)[C@H](C(C)C)NC(=O)[C@H](Cc2c[nH]c3ccccc23)NC(=O)[C@H](CC(=O)O)NC(=O)[C@H](Cc2ccc(C(=O)O)cc2)NC(=O)[C@H](Cc2ccncc2)NC(=O)CSC[C@@H](C(=O)N[C@@H](C)C(N)=O)NC(=O)[C@H]([C@@H](C)O)NC(=O)[C@H](C(C)C)NC(=O)[C@H](CC2CCCCC2)NC(=O)[C@H](Cc2c[nH]cn2)NC1=O` [Compound 1598], the IC50 was 9.9 nM. For `CC(C)C[C@H]1NC(=O)[C@H](CCCN)NC(=O)[C@H](CCCNC(N)=O)NC(=O)[C@H](Cc2ccc(-c3ccccc3)cc2)NC(=O)[C@H](C(C)C)NC(=O)[C@H](Cc2c[nH]c3ccccc23)NC(=O)[C@H](CC(=O)O)NC(=O)[C@H](Cc2ccc(C(=O)O)cc2)NC(=O)[C@H](Cc2ccc(OCC(=O)O)cc2)NC(=O)CSC[C@@H](C(=O)N[C@@H](C)C(N)=O)NC(=O)[C@H]([C@@H](C)O)NC(=O)[C@H](C(C)C)NC(=O)[C@H](CC2CCCCC2)NC(=O)[C@H](Cc2c[nH]cn2)NC1=O` [Compound 1602], the IC50 was 23.8 nM. `CC[C@H](C)[C@@H]1NC(=O)[C@H](Cc2ccc(-c3ccccc3)cc2)NC(=O)[C@H](C(C)C)NC(=O)[C@H](Cc2c[nH]c3ccccc23)NC(=O)[C@H](CC(=O)O)NC(=O)[C@H](Cc2ccncc2)NC(=O)[C@H](Cc2ccc(OCC(=O)O)cc2)NC(=O)CSC[C@@H](C(=O)N[C@@H](C)C(N)=O)NC(=O)[C@H]([C@@H](C)O)NC(=O)[C@H](C(C)C)NC(=O)[C@H](CC2CCCCC2)NC(=O)[C@H](Cc2c[nH]cn2)NC(=O)[C@@H](CC(C)C)NC(=O)[C@H](CCCN)NC1=O` [Compound 1604] gave an IC50 of 45.8 nM. `CC(C)C[C@H]1NC(=O)[C@H](CCCN)NC(=O)[C@H](CCC(=O)O)NC(=O)[C@H](Cc2ccc(-c3ccccc3)cc2)NC(=O)[C@H](C(C)C)NC(=O)[C@H](Cc2c[nH]c3ccccc23)NC(=O)[C@H](CC(=O)O)NC(=O)[C@H](Cc2ccncc2)NC(=O)[C@H](Cc2ccc(OCC(=O)O)cc2)NC(=O)CSC[C@@H](C(=O)N[C@@H](C)C(N)=O)NC(=O)[C@H]([C@@H](C)O)NC(=O)[C@H](C(C)C)NC(=O)[C@H](CC2CCCCC2)NC(=O)[C@H](Cc2c[nH]cn2)NC1=O` [Compound 1605] gave an IC50 of 23.1 nM. `CC(C)C[C@H]1NC(=O)[C@H](CCCN)NC(=O)[C@H](CCC(=O)O)NC(=O)[C@H](Cc2ccc(-c3ccccc3)cc2)NC(=O)[C@H](C(C)C)NC(=O)[C@H](Cc2c[nH]c3ccccc23)NC(=O)[C@H](CC(=O)O)NC(=O)[C@H](Cc2ccc(OCC(=O)O)cc2)NC(=O)[C@H](Cc2ccncc2)NC(=O)CSC[C@@H](C(=O)N[C@@H](C)C(N)=O)NC(=O)[C@H]([C@@H](C)O)NC(=O)[C@H](C(C)C)NC(=O)[C@H](CC2CCCCC2)NC(=O)[C@H](Cc2c[nH]cn2)NC1=O` [Compound 1609] gave an IC50 of 15.3 nM. `CC(C)C[C@H]1NC(=O)[C@H](CCCN)NC(=O)[C@H](CCCNC(N)=O)NC(=O)[C@H](Cc2ccc(-c3ccccc3)cc2)NC(=O)[C@H](C(C)C)NC(=O)[C@H](Cc2c[nH]c3ccccc23)NC(=O)[C@H](CC(=O)O)NC(=O)[C@H](Cc2ccc(OCC(=O)O)cc2)NC(=O)[C@H](Cc2ccncc2)NC(=O)CSC[C@@H](C(=O)N[C@@H](C)C(N)=O)NC(=O)[C@H]([C@@H](C)O)NC(=O)[C@H](C(C)C)NC(=O)[C@H](CC2CCCCC2)NC(=O)[C@H](Cc2c[nH]cn2)NC1=O` [Compound 1610] gave an IC50 of 21.5 nM.

Same assay, conditions: Jurkat-PD-1 cells, PE-labeled PD-L1-Ig 20 nM final; read-out: Jurkat HPD1_PDL1 IC50
Molecule `Cc1cccc(C[C@@H]2NC(=O)[C@H](CC(=O)O)NC(=O)[C@H](Cc3ccc(OCC(=O)O)cc3)NC(=O)[C@H](Cc3cccnc3)NC(=O)CSC[C@@H](C(=O)N[C@@H](C)C(N)=O)NC(=O)[C@H]([C@@H](C)O)NC(=O)[C@H](C(C)C)NC(=O)[C@H](CC3CCCCC3)NC(=O)[C@H](Cc3cnc[nH]3)NC(=O)[C@@H](CC(C)C)NC(=O)[C@H](CCCN)NC(=O)[C@H](C(C)C)NC(=O)[C@H](Cc3ccc(-c4ccccc4)cc3)NC(=O)[C@H](C(C)C)NC2=O)c1` [Compound 1587] has an IC50 of 26 nM. With `Cc1cccc(C[C@@H]2NC(=O)[C@H](CC(=O)O)NC(=O)[C@H](Cc3ccc(OCC(=O)O)cc3)NC(=O)[C@H](Cc3ccncc3)NC(=O)CSC[C@@H](C(=O)N[C@@H](C)C(N)=O)NC(=O)[C@H]([C@@H](C)O)NC(=O)[C@H](C(C)C)NC(=O)[C@H](CC3CCCCC3)NC(=O)[C@H](Cc3cnc[nH]3)NC(=O)[C@@H](CC(C)C)NC(=O)[C@H](CCCN)NC(=O)[C@H](C(C)C)NC(=O)[C@H](Cc3ccc(-c4ccccc4)cc3)NC(=O)[C@H](C(C)C)NC2=O)c1` [Compound 1588] the IC50 was 25.4 nM. `CC[C@H](C)[C@@H]1NC(=O)[C@H](Cc2ccc(-c3ccccc3)cc2)NC(=O)[C@H](C(C)C)NC(=O)[C@H](Cc2c[nH]c3ccccc23)NC(=O)[C@H](CC(=O)O)NC(=O)[C@H](Cc2ccc(OCC(=O)O)cc2)NC(=O)[C@H](CN)NC(=O)CSC[C@@H](C(=O)N[C@@H](C)C(N)=O)NC(=O)[C@H]([C@@H](C)O)NC(=O)[C@H](C(C)C)NC(=O)[C@H](CC2CCCCC2)NC(=O)[C@H](Cc2cnc[nH]2)NC(=O)[C@@H](CC(C)C)NC(=O)[C@H](CCCN)NC1=O` [Compound 1589] showed an IC50 of 16.4 nM. `CC(C)C[C@H]1NC(=O)[C@H](CCCN)NC(=O)[C@H](CCCNC(N)=O)NC(=O)[C@H](Cc2ccc(-c3ccccc3)cc2)NC(=O)[C@H](C(C)C)NC(=O)[C@H](Cc2c[nH]c3ccccc23)NC(=O)[C@H](CC(=O)O)NC(=O)[C@H](Cc2ccc(OCC(=O)O)cc2)NC(=O)[C@H](CN)NC(=O)CSC[C@@H](C(=O)N[C@@H](C)C(N)=O)NC(=O)[C@H]([C@@H](C)O)NC(=O)[C@H](C(C)C)NC(=O)[C@H](CC2CCCCC2)NC(=O)[C@H](Cc2c[nH]cn2)NC1=O` [Compound 1590] ({CH2CO}-[Dap]Y(Carboxymethyl)DWV[Bip][Cit][Orn][dL]H[Cha]VTCA-NH2; thioether N-14) was tested, and the IC50 was 9 nM. For `CC(C)C[C@H]1NC(=O)[C@H](CCCN)NC(=O)[C@H](CCC(=O)O)NC(=O)[C@H](Cc2ccc(-c3ccccc3)cc2)NC(=O)[C@H](C(C)C)NC(=O)[C@H](Cc2c[nH]c3ccccc23)NC(=O)[C@H](CC(=O)O)NC(=O)[C@H](Cc2ccc(OCC(=O)O)cc2)NC(=O)[C@H](Cc2ccc(OCC(=O)O)cc2)NC(=O)CSC[C@@H](C(=O)N[C@@H](C)C(N)=O)NC(=O)[C@H]([C@@H](C)O)NC(=O)[C@H](C(C)C)NC(=O)[C@H](CC2CCCCC2)NC(=O)[C@H](Cc2cnc[nH]2)NC1=O` [Compound 1593], the IC50 was 23 nM. For `CC(C)C[C@H]1NC(=O)[C@H](CCCN)NC(=O)[C@H](C(C)C)NC(=O)[C@H](Cc2ccc(-c3ccccc3)cc2)NC(=O)[C@H](C(C)C)NC(=O)[C@H](Cc2c[nH]c3ccccc23)NC(=O)[C@H](CC(=O)O)NC(=O)[C@H](Cc2ccc(OCC(=O)O)cc2)NC(=O)[C@H](Cc2ccncc2)NC(=O)CSC[C@@H](C(=O)N[C@@H](C)C(N)=O)NC(=O)[C@H]([C@@H](C)O)NC(=O)[C@H](C(C)C)NC(=O)[C@H](CC2CCCCC2)NC(=O)[C@H](Cc2cnc[nH]2)NC1=O` [Compound 1607], the IC50 was 14.6 nM. `CC[C@H](C)[C@@H]1NC(=O)[C@H](Cc2ccc(-c3ccccc3)cc2)NC(=O)[C@H](C(C)C)NC(=O)[C@H](Cc2c[nH]c3ccccc23)NC(=O)[C@H](CC(=O)O)NC(=O)[C@H](Cc2ccc(OCC(=O)O)cc2)NC(=O)[C@H](Cc2ccncc2)NC(=O)CSC[C@@H](C(=O)N[C@@H](C)C(N)=O)NC(=O)[C@H]([C@@H](C)O)NC(=O)[C@H](C(C)C)NC(=O)[C@H](CC2CCCCC2)NC(=O)[C@H](Cc2cnc[nH]2)NC(=O)[C@@H](CC(C)C)NC(=O)[C@H](CCCN)NC1=O` [Compound 1608] gave an IC50 of 32.2 nM.
